Results as given in patent publication US8546320B2, “Hsp9O-targeted anti-cancer chimeric peptide” (Kyoto University, priority 2008, dated 2013).
Where a SMILES comes first, the peptide text is derived from it.

Tests used:
cancer cells = test: Cell viability assay, summary statements on cancer cells; format: cell-based; conditions: single mutation in TPR or Antp region of Antp-TPR
Caki-1 = format: cell-based, human; conditions: Caki-1; for Anti-cancer activity (% relative to wild-type peptide) / Decrease in cell survival rate (% relative to wild-type peptide): wild-type peptide = 100%
U937 = test: cells; format: cell-based, human; conditions: for killing effect compared with the wild-type peptide / Anti-cancer activity (% relative to wild-type peptide) / Decrease in cell survival rate (% relative to wild-type peptide): U937; for Anti-cancer activity (% relative to wild-type peptide) / Decrease in cell survival rate (% relative to wild-type peptide): wild-type peptide = 100%
Procedure: A total of 3×10^3 cells per well were inoculated onto a 96 well plate, and incubated in a medium containing 10% FBS with 100 μl of a peptide diluted stepwise at 37° C. for 48 to 72 hours. The survival rate of the cells was measured by using WST-8 solution (Cell Count Reagent SF; Nacalai Tesque, Inc.).

SMILES	effect compared with the wild-type protein (summary of mutations) (cancer cells)	Anti-cancer activity (% relative to wild-type peptide) (Caki-1)	Decrease in cell survival rate (% relative to wild-type peptide) (Caki-1)	Cell Survival Rate (%) (U937)	killing effect compared with the wild-type peptide (U937)	Anti-cancer activity (% relative to wild-type peptide) (U937)	Decrease in cell survival rate (% relative to wild-type peptide) (U937)	killing effect compared with the wild-type peptide (Caki-1)
CC[C@H](C)[C@H](NC(=O)[C@H](CCCNC(=N)N)NC(=O)[C@H](C)NC(=O)[C@H](Cc1ccc(O)cc1)NC(=O)[C@H](C)NC(=O)[C@H](CCCCN)NC(=O)[C@H](CCCCN)NC(=O)[C@H](CCCCN)NC(=O)[C@H](Cc1c[nH]c2ccccc12)NC(=O)[C@H](CCCCN)NC(=O)[C@H](CCSC)NC(=O)[C@H](CCCNC(=N)N)NC(=O)[C@H](CCCNC(=N)N)NC(=O)[C@H](CC(N)=O)NC(=O)[C@H](CCC(N)=O)NC(=O)[C@H](Cc1ccccc1)NC(=O)[C@H](Cc1ccc(O)cc1)NC(=O)[C@@H](NC(=O)[C@H](CCCCN)NC(=O)[C@@H](NC(=O)[C@H](CCC(N)=O)NC(=O)[C@@H](N)CCCNC(=N)N)[C@@H](C)CC)[C@@H](C)CC)C(=O)NCC(=O)N[C@@H](CC(N)=O)C(=O)N[C@@H](CO)C(=O)N[C@@H](Cc1ccc(O)cc1)C(=O)N[C@@H](Cc1ccccc1)C(=O)N[C@@H](CCCCN)C(=O)O [Antp W6Y-TPR] (H-RQIKIYFQNRRMKWKKKAYARIGNSYFK-OH; N-terminus and C-terminus assumed)	effective but with an effect lower than the wild-type protein	32.99%	15.14%	–	–	–	–	–
CC[C@H](C)[C@H](NC(=O)[C@H](CCCNC(=N)N)NC(=O)[C@H](C)NC(=O)[C@H](Cc1ccc(O)cc1)NC(=O)[C@H](C)NC(=O)[C@H](CCCCN)NC(=O)[C@H](CCCCN)NC(=O)[C@H](CCCCN)NC(=O)[C@H](Cc1ccc(O)cc1)NC(=O)[C@H](CCCCN)NC(=O)[C@H](CCSC)NC(=O)[C@H](CCCNC(=N)N)NC(=O)[C@H](CCCNC(=N)N)NC(=O)[C@H](CC(N)=O)NC(=O)[C@H](CCC(N)=O)NC(=O)[C@H](Cc1ccccc1)NC(=O)[C@H](Cc1c[nH]c2ccccc12)NC(=O)[C@@H](NC(=O)[C@H](CCCCN)NC(=O)[C@@H](NC(=O)[C@H](CCC(N)=O)NC(=O)[C@@H](N)CCCNC(=N)N)[C@@H](C)CC)[C@@H](C)CC)C(=O)NCC(=O)N[C@@H](CC(N)=O)C(=O)N[C@@H](CO)C(=O)N[C@@H](Cc1ccc(O)cc1)C(=O)N[C@@H](Cc1ccccc1)C(=O)N[C@@H](CCCCN)C(=O)O [Antp W14Y-TPR] (H-RQIKIWFQNRRMKYKKKAYARIGNSYFK-OH; N-terminus and C-terminus assumed)	effect similar to that of the wild-type protein	83.36%	41.80%	–	–	–	–	–
CC[C@H](C)[C@H](NC(=O)[C@H](CCCNC(=N)N)NC(=O)[C@H](C)NC(=O)[C@H](Cc1ccc(O)cc1)NC(=O)CNC(=O)[C@H](CCCCN)NC(=O)[C@H](CCCCN)NC(=O)[C@H](CCCCN)NC(=O)[C@H](Cc1c[nH]c2ccccc12)NC(=O)[C@H](CCCCN)NC(=O)[C@H](CCSC)NC(=O)[C@H](CCCNC(=N)N)NC(=O)[C@H](CCCNC(=N)N)NC(=O)[C@H](CC(N)=O)NC(=O)[C@H](CCC(N)=O)NC(=O)[C@H](Cc1ccccc1)NC(=O)[C@H](Cc1c[nH]c2ccccc12)NC(=O)[C@@H](NC(=O)[C@H](CCCCN)NC(=O)[C@@H](NC(=O)[C@H](CCC(N)=O)NC(=O)[C@@H](N)CCCNC(=N)N)[C@@H](C)CC)[C@@H](C)CC)C(=O)NCC(=O)N[C@@H](CC(N)=O)C(=O)N[C@@H](CO)C(=O)N[C@@H](Cc1ccc(O)cc1)C(=O)N[C@@H](Cc1ccccc1)C(=O)N[C@@H](CCCCN)C(=O)O [Antp-A2G] (H-RQIKIWFQNRRMKWKKKGYARIGNSYFK-OH; N-terminus and C-terminus assumed)	effect higher than the wild-type protein	100.70%	105.96%	13.90%	increase in effect	112.17%	167.23%	–
CC[C@H](C)[C@H](NC(=O)[C@H](CCCNC(=N)N)NC(=O)CNC(=O)[C@H](Cc1ccc(O)cc1)NC(=O)[C@H](C)NC(=O)[C@H](CCCCN)NC(=O)[C@H](CCCCN)NC(=O)[C@H](CCCCN)NC(=O)[C@H](Cc1c[nH]c2ccccc12)NC(=O)[C@H](CCCCN)NC(=O)[C@H](CCSC)NC(=O)[C@H](CCCNC(=N)N)NC(=O)[C@H](CCCNC(=N)N)NC(=O)[C@H](CC(N)=O)NC(=O)[C@H](CCC(N)=O)NC(=O)[C@H](Cc1ccccc1)NC(=O)[C@H](Cc1c[nH]c2ccccc12)NC(=O)[C@@H](NC(=O)[C@H](CCCCN)NC(=O)[C@@H](NC(=O)[C@H](CCC(N)=O)NC(=O)[C@@H](N)CCCNC(=N)N)[C@@H](C)CC)[C@@H](C)CC)C(=O)NCC(=O)N[C@@H](CC(N)=O)C(=O)N[C@@H](CO)C(=O)N[C@@H](Cc1ccc(O)cc1)C(=O)N[C@@H](Cc1ccccc1)C(=O)N[C@@H](CCCCN)C(=O)O [Antp-A4G] (H-RQIKIWFQNRRMKWKKKAYGRIGNSYFK-OH; N-terminus and C-terminus assumed)	effect higher than the wild-type protein	108.40%	333.52%	11.42%	–	115.40%	203.46%	stronger than that of the wild-type peptide
CC[C@H](C)[C@H](NC(=O)[C@H](CCCNC(=N)N)NC(=O)[C@H](C)NC(=O)[C@H](Cc1ccc(O)cc1)NC(=O)[C@H](C)NC(=O)[C@H](CCCCN)NC(=O)[C@H](CCCCN)NC(=O)[C@H](CCCCN)NC(=O)[C@H](Cc1c[nH]c2ccccc12)NC(=O)[C@H](CCCCN)NC(=O)[C@H](CCSC)NC(=O)[C@H](CCCNC(=N)N)NC(=O)[C@H](CCCNC(=N)N)NC(=O)[C@H](CC(N)=O)NC(=O)[C@H](CCC(N)=O)NC(=O)[C@H](Cc1ccccc1)NC(=O)[C@H](Cc1c[nH]c2ccccc12)NC(=O)[C@@H](NC(=O)[C@H](CCCCN)NC(=O)[C@@H](NC(=O)[C@H](CCC(N)=O)NC(=O)[C@@H](N)CCCNC(=N)N)[C@@H](C)CC)[C@@H](C)CC)C(=O)NCC(=O)N[C@@H](CC(N)=O)C(=O)N[C@@H](CO)C(=O)N[C@@H](Cc1ccc(O)cc1)C(=O)N[C@@H](Cc1ccc(O)cc1)C(=O)N[C@@H](CCCCN)C(=O)O [Antp-F11Y] (H-RQIKIWFQNRRMKWKKKAYARIGNSYYK-OH; N-terminus and C-terminus assumed)	effect higher than the wild-type protein	110.50%	820.08%	1.10%	increase in effect	128.84%	2116.95%	stronger than that of the wild-type peptide
CC[C@H](C)[C@H](NC(=O)[C@H](CCCNC(=N)N)NC(=O)[C@H](C)NC(=O)[C@H](Cc1ccc(O)cc1)NC(=O)[C@H](C)NC(=O)[C@H](CCCCN)NC(=O)[C@H](CCCCN)NC(=O)[C@H](CCCCN)NC(=O)[C@H](Cc1c[nH]c2ccccc12)NC(=O)[C@H](CCCCN)NC(=O)[C@H](CCSC)NC(=O)[C@H](CCCNC(=N)N)NC(=O)[C@H](CCCNC(=N)N)NC(=O)[C@H](CC(N)=O)NC(=O)[C@H](CCC(N)=O)NC(=O)[C@H](Cc1ccccc1)NC(=O)[C@H](Cc1c[nH]c2ccccc12)NC(=O)[C@@H](NC(=O)[C@H](CCCCN)NC(=O)[C@@H](NC(=O)[C@H](CCC(N)=O)NC(=O)[C@@H](N)CCCNC(=N)N)[C@@H](C)CC)[C@@H](C)CC)C(=O)N[C@@H](C)C(=O)N[C@@H](CC(N)=O)C(=O)N[C@@H](CO)C(=O)N[C@@H](Cc1ccc(O)cc1)C(=O)N[C@@H](Cc1ccccc1)C(=O)N[C@@H](CCCCN)C(=O)O [Antp-G7A] (H-RQIKIWFQNRRMKWKKKAYARIANSYFK-OH; N-terminus and C-terminus assumed)	effect similar to that of the wild-type protein	96.23%	76.07%	16.85%	increase in effect	108.32%	137.88%	–
CC[C@H](C)[C@H](NC(=O)[C@H](CCCNC(=N)N)NC(=O)[C@H](C)NC(=O)[C@H](Cc1ccc(O)cc1)NC(=O)[C@H](C)NC(=O)[C@H](CCCCN)NC(=O)[C@H](CCCCN)NC(=O)[C@H](CCCCN)NC(=O)[C@H](Cc1c[nH]c2ccccc12)NC(=O)[C@H](CCCCN)NC(=O)[C@H](CCSC)NC(=O)[C@H](CCCNC(=N)N)NC(=O)[C@H](CCCNC(=N)N)NC(=O)[C@H](CC(N)=O)NC(=O)[C@H](CCC(N)=O)NC(=O)[C@H](Cc1ccccc1)NC(=O)[C@H](Cc1c[nH]c2ccccc12)NC(=O)[C@@H](NC(=O)[C@H](CCCCN)NC(=O)[C@@H](NC(=O)[C@H](CCC(N)=O)NC(=O)[C@@H](N)CCCCN)[C@@H](C)CC)[C@@H](C)CC)C(=O)NCC(=O)N[C@@H](CC(N)=O)C(=O)N[C@@H](CO)C(=O)N[C@@H](Cc1ccc(O)cc1)C(=O)N[C@@H](Cc1ccccc1)C(=O)N[C@@H](CCCCN)C(=O)O [Antp-R1K-TPR] (H-KQIKIWFQNRRMKWKKKAYARIGNSYFK-OH; N-terminus and C-terminus assumed)	effective but with an effect lower than the wild-type protein	64.10%	24.98%	–	–	–	–	–
